Test results published in patent US11980596B2 (priority 2017, dated 2024).

Test system: subjects with MDD at imminent risk for suicide
[1] = esketamine 84 mg, double-blind phase, N = 35

Description: The study consisted of a screening evaluation performed within 24 hours (or up to 48 hours upon consultation with the Sponsor's medical monitor) prior to Day 1 dose, immediately followed by a 25-day double-blind treatment phase (Day 1 to 25) with twice a week dosing, and a 56-day follow up phase (Day 26 to Day 81). The study was designed as a POC study and therefore a two-sided 0.20 significance level was used.
Among 68 randomized subjects, 66 were included in the safety analysis set (defined as receiving at least one dose of study medication in the double-blind phase). […] All safety subjects (N=66) were included in the intent-to-treat (ITT) analysis set (defined as receiving at least one dose of study medication during the double-blind phase and having both the baseline and the Day 1, 4-hour postdose evaluation for the MADRS total score). Forty-nine subjects were included in the safety (FU) analysis set (defined as all subjects who have at least 1 visit during the follow up phase).

Compound: CN[C@]1(c2ccccc2Cl)CCCCC1=O [esketamine, (S)-2-(2-chlorophenyl)-2-(methylamino)cyclohexanone]
- Discontinued from the double-blind phase due to (treatment-emergent) adverse events (84 mg): 5 subjects
- Subjects with a serious adverse event (84 mg group, follow up phase): 1 subjects
- TEAE: dissociation (84 mg, double-blind phase): 31.4%
- TEAE: dizziness (84 mg, double-blind phase): 34.3%
- TEAE: dysgeusia (84 mg, double-blind phase): 31.4%
- TEAE: headache (84 mg, double-blind phase): 31.4%
- TEAE: nausea (84 mg, double-blind phase): 37.1%
- TEAE: vomiting (84 mg, double-blind phase): 20.0%
- Withdrawn from double-blind phase: Adverse event (esketamine 84 mg, all randomized analysis set, N = 36): 5 (13.9%) subjects (%)
- 1 or more serious TEAE [1]: 4 (11.4%) subjects (%)
- Serious TEAE: Agitation [1]: 1 (2.9%) subjects (%)
- Serious TEAE: Depressive symptom [1]: 1 (2.9%) subjects (%)
- Serious TEAE: Psychiatric disorders [1]: 4 (11.4%) subjects (%)
- Serious TEAE: Suicidal ideation [1]: 2 (5.7%) subjects (%)
- TEAE [1]: 33 (94.3%) subjects (%)
- TEAE Abdominal pain, no. subjects [1]: 0
- TEAE Acne, % of subjects [1]: (5.7%)
- TEAE Acne, no. subjects [1]: 2
- TEAE Agitation, % of subjects [1]: (8.6%)
- TEAE Agitation, no. subjects [1]: 3
- TEAE Anxiety, % of subjects [1]: (17.1%)
- TEAE Anxiety, no. subjects [1]: 6
- TEAE Blepharospasm, no. subjects [1]: 0
- TEAE Blood pressure increased, % of subjects [1]: (5.7%)
- TEAE Blood pressure increased, no. subjects [1]: 2
- TEAE Constipation, no. subjects [1]: 0
- TEAE Diarrhea, % of subjects [1]: (8.6%)
- TEAE Diarrhea, no. subjects [1]: 3
- TEAE Diplopia, % of subjects [1]: (5.7%)
- TEAE Diplopia, no. subjects [1]: 2
- TEAE Dissociation, % of subjects [1]: (31.4%)
- TEAE Dissociation, no. subjects [1]: 11
- TEAE Dizziness postural, % of subjects [1]: (5.7%)
- TEAE Dizziness postural, no. subjects [1]: 2
- TEAE Dizziness, % of subjects [1]: (34.3%)
- TEAE Dizziness, no. subjects [1]: 12
- TEAE Dry mouth, % of subjects [1]: (8.6%)
- TEAE Dry mouth, no. subjects [1]: 3
- TEAE Dysgeusia, % of subjects [1]: (31.4%)
- TEAE Dysgeusia, no. subjects [1]: 11
- TEAE Ear and labyrinth disorders, % of subjects [1]: (25.7%)
- TEAE Ear and labyrinth disorders, no. subjects [1]: 9
- TEAE Epistaxis, no. subjects [1]: 0
- TEAE Euphoric mood, % of subjects [1]: (11.4%)
- TEAE Euphoric mood, no. subjects [1]: 4
- TEAE Eye disorders, % of subjects [1]: (20.0%)
- TEAE Eye disorders, no. subjects [1]: 7
- TEAE Fatigue, % of subjects [1]: (5.7%)
- TEAE Fatigue, no. subjects [1]: 2
- TEAE Feeling abnormal, % of subjects [1]: (8.6%)
- TEAE Feeling abnormal, no. subjects [1]: 3
- TEAE Feeling cold, % of subjects [1]: (5.7%)
- TEAE Feeling cold, no. subjects [1]: 2
- TEAE Flatulence, % of subjects [1]: (2.9%)
- TEAE Flatulence, no. subjects [1]: 1
- TEAE Gastrointestinal disorders, % of subjects [1]: (54.3%)
- TEAE Gastrointestinal disorders, no. subjects [1]: 19
- TEAE General disorders and administration site conditions, % of subjects [1]: (28.6%)
- TEAE General disorders and administration site conditions, no. subjects [1]: 10
- TEAE Headache, % of subjects [1]: (31.4%)
- TEAE Headache, no. subjects [1]: 11
- TEAE Hyperacusis, % of subjects [1]: (5.7%)
- TEAE Hyperacusis, no. subjects [1]: 2
- TEAE Hyperhidrosis, % of subjects [1]: (5.7%)
- TEAE Hyperhidrosis, no. subjects [1]: 2
- TEAE Hypoesthesia oral, % of subjects [1]: (5.7%)
- TEAE Hypoesthesia oral, no. subjects [1]: 2
- TEAE Hypoesthesia, % of subjects [1]: (8.6%)
- TEAE Hypoesthesia, no. subjects [1]: 3
- TEAE Infections and infestations, % of subjects [1]: (2.9%)
- TEAE Infections and infestations, no. subjects [1]: 1
- TEAE Insomnia, % of subjects [1]: (8.6%)
- TEAE Insomnia, no. subjects [1]: 3
- TEAE Intranasal paranesthesia, no. subjects [1]: 0
- TEAE Investigations, % of subjects [1]: (14.3%)
- TEAE Investigations, no. subjects [1]: 5
- TEAE Nasal congestion, % of subjects [1]: (2.9%)
- TEAE Nasal congestion, no. subjects [1]: 1
- TEAE Nasal discomfort, % of subjects [1]: (8.6%)
- TEAE Nasal discomfort, no. subjects [1]: 3
- TEAE Nausea, % of subjects [1]: (37.1%)
- TEAE Nausea, no. subjects [1]: 13
- TEAE Nervous system disorders, % of subjects [1]: (71.4%)
- TEAE Nervous system disorders, no. subjects [1]: 25
- TEAE Oropharyngeal pain, % of subjects [1]: (5.7%)
- TEAE Oropharyngeal pain, no. subjects [1]: 2
- TEAE Panic attack, no. subjects [1]: 0
- TEAE Paresthesia oral, % of subjects [1]: (5.7%)
- TEAE Paresthesia oral, no. subjects [1]: 2
- TEAE Paresthesia, % of subjects [1]: (17.1%)
- TEAE Paresthesia, no. subjects [1]: 6
- TEAE Pharyngeal hypoesthesia, % of subjects [1]: (5.7%)
- TEAE Pharyngeal hypoesthesia, no. subjects [1]: 2
- TEAE Pollakiuria, no. subjects [1]: 0
- TEAE Psychiatric disorders, % of subjects [1]: (57.1%)
- TEAE Psychiatric disorders, no. subjects [1]: 20
- TEAE Rash, % of subjects [1]: (2.9%)
- TEAE Rash, no. subjects [1]: 1
- TEAE Renal and urinary disorders, % of subjects [1]: (2.9%)
- TEAE Renal and urinary disorders, no. subjects [1]: 1
- TEAE Respiratory, thoracic and mediastinal disorders, % of subjects [1]: (25.7%)
- TEAE Respiratory, thoracic and mediastinal disorders, no. subjects [1]: 9
- TEAE Rhinalgia, no. subjects [1]: 0
- TEAE Rhinorrhoea, no. subjects [1]: 0
- TEAE Sedation, % of subjects [1]: (17.1%)
- TEAE Sedation, no. subjects [1]: 6
- TEAE Skin and subcutaneous tissue disorders, % of subjects [1]: (14.3%)
- TEAE Skin and subcutaneous tissue disorders, no. subjects [1]: 5
- TEAE Somnolence, % of subjects [1]: (11.4%)
- TEAE Somnolence, no. subjects [1]: 4
- TEAE Suicidal ideation, % of subjects [1]: (5.7%)
- TEAE Suicidal ideation, no. subjects [1]: 2
- TEAE Throat irritation, % of subjects [1]: (8.6%)
- TEAE Throat irritation, no. subjects [1]: 3
- TEAE Tinnitus, % of subjects [1]: (5.7%)
- TEAE Tinnitus, no. subjects [1]: 2
- TEAE Toothache, no. subjects [1]: 0
- TEAE Upper respiratory tract infection, no. subjects [1]: 0
- TEAE Vertigo, % of subjects [1]: (11.4%)
- TEAE Vertigo, no. subjects [1]: 4
- TEAE Vision blurred, % of subjects [1]: (8.6%)
- TEAE Vision blurred, no. subjects [1]: 3
- TEAE Vomiting, % of subjects [1]: (20.0%)
- TEAE Vomiting, no. subjects [1]: 7
- TEAE Weight increased, % of subjects [1]: (5.7%)
- TEAE Weight increased, no. subjects [1]: 2
- TEAE leading to death [1]: 0 subjects (%)
- TEAE leading to drug withdrawn [1]: 5 (14.3%) subjects (%)
- TEAE leading to study discontinuation: Aggression [1]: 1 (2.9%) subjects (%)
- TEAE leading to study discontinuation: Agitation [1]: 1 (2.9%) subjects (%)
- TEAE leading to study discontinuation: Cardiac disorders [1]: 1 (2.9%) subjects (%)
- TEAE leading to study discontinuation: Dissociative disorder [1]: 0 subjects (%)
- TEAE leading to study discontinuation: Dizziness [1]: 1 (2.9%) subjects (%)
